Assay results from the NIST ThermoML archive (doi:10.1016/j.jct.2012.03.031).
Numbers after ± are expanded uncertainties.

Conditions: Crystal 1; visual observation

CCCCc1ccc(C(=O)Oc2ccc(C#N)c(F)c2)cc1 [4-cyano-3-fluorophenyl 4-butylbenzoate]
Triple point temperature: 288.43 ± 0.39 K
